Test results published in ChEMBL document CHEMBL1629443 (J Med Chem, 2010).
pEC50, pIC50: −log10 of the molar value. Activity calls are given as the source filed them. No cut-off for these calls is given here.

How the values were obtained:
[1] = target: Tyrosine-protein kinase ABL1 (Homo sapiens, UniProt P00519); experiment: Inhibition of ABL1 by flash plate based radioactive enzyme assay
[2] = target: Platelet-derived growth factor receptor beta (Homo sapiens, UniProt P09619); experiment: Inhibition of PDGFRbeta by flash plate based radioactive enzyme assay
[3] = target: Histone deacetylase (Homo sapiens) (UniProt Q13547+O15379+Q9UBN7+Q92769+Q9UQL6+Q8WUI4+Q9BY41+Q96DB2+P56524+Q9UKV0+Q969S8); conditions: CAL-27, 1 uM
Description: Inhibition of HADC in human CAL27 cells overexpressing EGFR assessed as effect on histone H2 acetylation at 1 uM after 16 hrs by Western blot

[4] = target: T1, Epidermal growth factor receptor (Homo sapiens, UniProt P00533); experiment: Inhibition of EGF-induced EGFR phosphorylation in human CAL27 cells overexpressing EGFR after 16 hrs by Western blot; format: cell-based, CAL-27
[5] = target: T2, Protein deacetylase HDAC6 (Homo sapiens, UniProt Q9UBN7); experiment: (§1) Inhibition of human recombinant HDAC6 expressed in HEK293 cells; format: cell-based
T2 sequence (Q9UBN7 whole entry): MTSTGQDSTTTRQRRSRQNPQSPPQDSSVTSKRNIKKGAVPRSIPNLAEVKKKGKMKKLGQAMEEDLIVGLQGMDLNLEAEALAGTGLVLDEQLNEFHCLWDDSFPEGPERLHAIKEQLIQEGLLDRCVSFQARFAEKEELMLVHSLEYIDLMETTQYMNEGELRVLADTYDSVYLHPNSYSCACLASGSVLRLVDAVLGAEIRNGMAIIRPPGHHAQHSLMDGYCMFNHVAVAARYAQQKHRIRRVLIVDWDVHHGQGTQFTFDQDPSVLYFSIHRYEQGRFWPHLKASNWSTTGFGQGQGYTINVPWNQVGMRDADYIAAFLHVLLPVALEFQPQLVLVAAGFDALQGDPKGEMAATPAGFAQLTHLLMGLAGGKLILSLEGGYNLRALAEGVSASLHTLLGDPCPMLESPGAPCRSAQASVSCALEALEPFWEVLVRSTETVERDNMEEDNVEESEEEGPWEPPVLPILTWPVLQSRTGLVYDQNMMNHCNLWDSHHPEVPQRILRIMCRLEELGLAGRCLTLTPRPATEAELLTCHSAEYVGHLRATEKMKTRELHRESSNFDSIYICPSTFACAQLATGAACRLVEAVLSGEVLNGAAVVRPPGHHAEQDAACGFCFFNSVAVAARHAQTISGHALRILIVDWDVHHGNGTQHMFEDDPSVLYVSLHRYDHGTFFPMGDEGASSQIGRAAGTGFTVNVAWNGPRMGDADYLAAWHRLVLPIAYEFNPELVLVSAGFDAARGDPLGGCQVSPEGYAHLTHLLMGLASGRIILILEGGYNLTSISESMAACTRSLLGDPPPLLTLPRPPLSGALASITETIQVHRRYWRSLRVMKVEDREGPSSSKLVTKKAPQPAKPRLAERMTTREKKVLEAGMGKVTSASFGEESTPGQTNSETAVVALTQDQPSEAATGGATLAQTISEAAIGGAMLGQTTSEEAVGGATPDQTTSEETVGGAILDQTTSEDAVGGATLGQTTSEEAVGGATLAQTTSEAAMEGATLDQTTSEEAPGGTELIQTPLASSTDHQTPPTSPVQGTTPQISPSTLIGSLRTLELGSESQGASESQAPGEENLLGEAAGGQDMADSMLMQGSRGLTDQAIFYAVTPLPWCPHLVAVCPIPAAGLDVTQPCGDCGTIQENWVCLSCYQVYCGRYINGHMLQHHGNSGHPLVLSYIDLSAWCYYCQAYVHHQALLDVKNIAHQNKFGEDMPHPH

[6] = target: Cyclin-dependent kinase 2 (Homo sapiens, UniProt P24941); experiment: Inhibition of CDK2 by flash plate based radioactive enzyme assay
[7] = Inhibition of PKA by flash plate based radioactive enzyme assay
CAL-27 = experiment: Cytotoxicity against human CAL27 cells overexpressing EGFR by resazurin dye reduction assay
Insulin receptor = Insulin receptor (Homo sapiens, UniProt P06213); experiment: Inhibition of INSR by flash plate based radioactive enzyme assay
Histone deacetylase 1 = Histone deacetylase 1 (Homo sapiens, UniProt Q13547); experiment: Inhibition of human recombinant HDAC1 expressed in HEK293 cells; format: cell-based
[8] = target: Receptor tyrosine-protein kinase erbB-2 (Homo sapiens, UniProt P04626); experiment: Inhibition of HER2 by flash plate based radioactive enzyme assay
SK-BR-3 = experiment: Cytotoxicity against human SKBR3 cells overexpressing HER2 by resazurin dye reduction assay
Histone deacetylase 3 = Histone deacetylase 3 (Homo sapiens, UniProt O15379); experiment: Inhibition of Flag tagged human recombinant HDAC3 expressed in Sf21 cells coexpressing SMRT DAD domain
[9] = target: T1, Epidermal growth factor receptor; experiment: Inhibition of EGFR by flash plate based radioactive enzyme assay
A-431 = experiment: Cytotoxicity against human A431 cells overexpressing EGFR by resazurin dye reduction assay
A549 = experiment: Cytotoxicity against human A549 cells overexpressing HDAC by resazurin dye reduction assay
Histone deacetylase = experiment: Inhibition of HDAC in human HeLa cell nuclear extracts; format: cell-based
[10] = Inhibition of HDAC assessed as histone H3K'9+14 acetylation levels by cell based histone H3 hyperacetylation assay
SK-OV-3 = experiment: Cytotoxicity against human SKOV3 cells overexpressing HER2 by resazurin dye reduction assay; format: functional, cell-based
HeLa = experiment: Cytotoxicity against human HeLa cells overexpressing HDAC by resazurin dye reduction assay
[11] = target: Serine/threonine-protein kinase PLK1 (Homo sapiens, UniProt P53350); experiment: Inhibition of PLK1 by flash plate based radioactive enzyme assay
Histone deacetylase 8 = target: T3, Histone deacetylase 8 (Homo sapiens, UniProt Q9BY41); experiment: Inhibition of Flag tagged human recombinant HDAC8 expressed in Sf21 cells
T3 sequence (Q9BY41 whole entry): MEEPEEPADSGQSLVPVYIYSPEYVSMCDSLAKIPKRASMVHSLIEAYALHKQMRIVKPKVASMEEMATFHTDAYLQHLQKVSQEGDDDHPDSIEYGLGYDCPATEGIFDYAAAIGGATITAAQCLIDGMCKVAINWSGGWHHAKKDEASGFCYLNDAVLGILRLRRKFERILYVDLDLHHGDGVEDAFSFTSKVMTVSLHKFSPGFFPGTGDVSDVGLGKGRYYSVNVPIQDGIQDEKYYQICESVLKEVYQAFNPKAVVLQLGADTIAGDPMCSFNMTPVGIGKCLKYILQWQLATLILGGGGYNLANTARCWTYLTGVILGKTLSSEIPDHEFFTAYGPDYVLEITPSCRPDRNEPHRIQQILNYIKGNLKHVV

[12] = target: Protein deacetylase HDAC6 (Homo sapiens) (UniProt Q9UBN7); experiment: as §1; format: cell-based

T1 sequence (P00533 whole entry): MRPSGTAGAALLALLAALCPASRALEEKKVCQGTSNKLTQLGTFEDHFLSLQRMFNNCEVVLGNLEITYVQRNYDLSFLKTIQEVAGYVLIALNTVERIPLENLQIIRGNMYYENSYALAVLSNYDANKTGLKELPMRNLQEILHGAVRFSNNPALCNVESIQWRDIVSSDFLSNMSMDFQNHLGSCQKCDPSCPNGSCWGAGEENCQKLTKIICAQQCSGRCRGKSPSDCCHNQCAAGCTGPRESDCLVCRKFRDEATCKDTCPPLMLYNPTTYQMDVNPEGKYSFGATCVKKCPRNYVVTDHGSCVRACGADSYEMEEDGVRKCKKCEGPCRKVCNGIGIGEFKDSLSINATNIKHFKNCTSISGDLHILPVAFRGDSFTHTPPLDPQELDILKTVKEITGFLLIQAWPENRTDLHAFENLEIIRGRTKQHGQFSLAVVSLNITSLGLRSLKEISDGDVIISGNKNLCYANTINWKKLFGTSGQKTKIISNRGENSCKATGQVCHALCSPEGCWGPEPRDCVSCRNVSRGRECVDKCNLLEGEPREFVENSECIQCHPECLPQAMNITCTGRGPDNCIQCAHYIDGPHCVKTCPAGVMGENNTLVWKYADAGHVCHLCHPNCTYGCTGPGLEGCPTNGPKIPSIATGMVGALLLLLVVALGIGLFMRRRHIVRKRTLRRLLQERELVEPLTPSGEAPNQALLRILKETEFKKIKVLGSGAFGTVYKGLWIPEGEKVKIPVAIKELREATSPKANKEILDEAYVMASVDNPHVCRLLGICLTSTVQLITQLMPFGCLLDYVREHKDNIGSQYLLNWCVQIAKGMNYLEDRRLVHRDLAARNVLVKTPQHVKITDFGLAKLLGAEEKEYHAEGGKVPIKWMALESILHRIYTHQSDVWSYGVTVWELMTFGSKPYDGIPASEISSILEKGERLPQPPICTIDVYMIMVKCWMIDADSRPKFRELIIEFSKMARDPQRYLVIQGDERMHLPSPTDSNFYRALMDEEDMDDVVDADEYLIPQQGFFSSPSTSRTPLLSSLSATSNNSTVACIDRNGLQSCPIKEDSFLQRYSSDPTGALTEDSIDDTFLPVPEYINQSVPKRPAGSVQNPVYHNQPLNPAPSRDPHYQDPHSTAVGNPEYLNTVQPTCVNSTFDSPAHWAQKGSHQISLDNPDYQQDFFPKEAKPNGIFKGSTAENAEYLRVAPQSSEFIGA
Sequence of Receptor tyrosine-protein kinase erbB-2 (P04626 whole entry): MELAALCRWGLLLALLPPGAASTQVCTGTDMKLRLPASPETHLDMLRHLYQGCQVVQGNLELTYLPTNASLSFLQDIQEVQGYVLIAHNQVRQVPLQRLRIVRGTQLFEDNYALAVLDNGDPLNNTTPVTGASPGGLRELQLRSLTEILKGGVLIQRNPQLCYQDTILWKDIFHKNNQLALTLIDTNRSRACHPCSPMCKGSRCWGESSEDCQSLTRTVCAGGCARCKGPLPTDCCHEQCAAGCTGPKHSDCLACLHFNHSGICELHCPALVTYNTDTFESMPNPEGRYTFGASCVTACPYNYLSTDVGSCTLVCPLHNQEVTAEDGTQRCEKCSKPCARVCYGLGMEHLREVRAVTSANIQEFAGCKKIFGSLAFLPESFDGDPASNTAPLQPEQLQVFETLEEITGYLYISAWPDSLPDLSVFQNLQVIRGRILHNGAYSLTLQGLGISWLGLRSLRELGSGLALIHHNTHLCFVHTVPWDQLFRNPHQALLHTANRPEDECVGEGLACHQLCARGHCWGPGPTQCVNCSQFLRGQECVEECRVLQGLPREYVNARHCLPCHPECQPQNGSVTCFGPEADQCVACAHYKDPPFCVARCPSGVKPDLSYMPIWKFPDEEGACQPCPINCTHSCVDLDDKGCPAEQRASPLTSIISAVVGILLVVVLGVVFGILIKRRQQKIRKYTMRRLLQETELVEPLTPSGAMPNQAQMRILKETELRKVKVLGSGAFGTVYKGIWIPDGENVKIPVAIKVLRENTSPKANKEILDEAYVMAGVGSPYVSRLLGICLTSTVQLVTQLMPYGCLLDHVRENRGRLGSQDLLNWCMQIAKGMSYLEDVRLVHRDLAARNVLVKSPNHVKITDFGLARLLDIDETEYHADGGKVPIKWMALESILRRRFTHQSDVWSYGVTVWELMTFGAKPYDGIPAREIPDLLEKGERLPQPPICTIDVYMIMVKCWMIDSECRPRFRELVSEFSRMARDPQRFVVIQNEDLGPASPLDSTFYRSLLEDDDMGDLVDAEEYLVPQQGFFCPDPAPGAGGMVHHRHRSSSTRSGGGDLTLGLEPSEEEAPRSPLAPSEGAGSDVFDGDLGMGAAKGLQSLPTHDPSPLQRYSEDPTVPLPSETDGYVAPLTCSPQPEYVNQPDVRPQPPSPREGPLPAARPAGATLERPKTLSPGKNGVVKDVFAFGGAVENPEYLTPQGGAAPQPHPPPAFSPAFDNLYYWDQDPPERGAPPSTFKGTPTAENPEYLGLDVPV
Sequence of Serine/threonine-protein kinase PLK1 (P53350 whole entry): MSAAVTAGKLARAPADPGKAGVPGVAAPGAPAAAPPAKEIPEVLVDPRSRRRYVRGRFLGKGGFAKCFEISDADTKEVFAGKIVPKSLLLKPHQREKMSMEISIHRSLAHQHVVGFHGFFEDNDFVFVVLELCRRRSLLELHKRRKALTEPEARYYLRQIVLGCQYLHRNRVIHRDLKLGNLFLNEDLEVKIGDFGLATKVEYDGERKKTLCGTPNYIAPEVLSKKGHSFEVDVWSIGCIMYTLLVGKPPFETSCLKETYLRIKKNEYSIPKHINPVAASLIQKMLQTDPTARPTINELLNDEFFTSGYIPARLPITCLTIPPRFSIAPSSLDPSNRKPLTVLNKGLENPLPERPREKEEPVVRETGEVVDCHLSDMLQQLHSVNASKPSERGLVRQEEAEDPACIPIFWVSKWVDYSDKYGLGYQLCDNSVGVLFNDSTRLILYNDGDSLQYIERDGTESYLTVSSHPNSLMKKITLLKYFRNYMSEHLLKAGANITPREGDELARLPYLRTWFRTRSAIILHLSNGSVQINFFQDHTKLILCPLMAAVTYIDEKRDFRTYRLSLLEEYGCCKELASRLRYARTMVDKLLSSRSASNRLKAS
Sequence of Insulin receptor (P06213 28-758 limits assumed): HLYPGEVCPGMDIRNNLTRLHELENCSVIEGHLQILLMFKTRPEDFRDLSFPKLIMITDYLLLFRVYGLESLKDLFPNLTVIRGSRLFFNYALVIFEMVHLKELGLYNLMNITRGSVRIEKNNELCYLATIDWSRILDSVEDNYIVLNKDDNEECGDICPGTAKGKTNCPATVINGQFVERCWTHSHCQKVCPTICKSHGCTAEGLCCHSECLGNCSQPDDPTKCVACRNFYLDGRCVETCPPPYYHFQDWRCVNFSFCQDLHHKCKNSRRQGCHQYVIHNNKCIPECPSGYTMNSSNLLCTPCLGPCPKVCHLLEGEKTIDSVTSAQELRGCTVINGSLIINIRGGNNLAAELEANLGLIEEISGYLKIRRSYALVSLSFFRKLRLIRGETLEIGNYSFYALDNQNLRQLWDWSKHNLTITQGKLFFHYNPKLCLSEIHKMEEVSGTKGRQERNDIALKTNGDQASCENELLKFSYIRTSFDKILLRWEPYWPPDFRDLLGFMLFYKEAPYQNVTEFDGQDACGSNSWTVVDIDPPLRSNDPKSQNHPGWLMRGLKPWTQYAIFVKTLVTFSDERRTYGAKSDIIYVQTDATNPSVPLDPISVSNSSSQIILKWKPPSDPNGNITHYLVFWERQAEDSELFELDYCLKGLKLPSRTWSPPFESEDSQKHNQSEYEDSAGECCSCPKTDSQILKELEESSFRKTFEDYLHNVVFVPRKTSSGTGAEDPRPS
Sequence of Insulin receptor (P06213 763-1382 limits assumed): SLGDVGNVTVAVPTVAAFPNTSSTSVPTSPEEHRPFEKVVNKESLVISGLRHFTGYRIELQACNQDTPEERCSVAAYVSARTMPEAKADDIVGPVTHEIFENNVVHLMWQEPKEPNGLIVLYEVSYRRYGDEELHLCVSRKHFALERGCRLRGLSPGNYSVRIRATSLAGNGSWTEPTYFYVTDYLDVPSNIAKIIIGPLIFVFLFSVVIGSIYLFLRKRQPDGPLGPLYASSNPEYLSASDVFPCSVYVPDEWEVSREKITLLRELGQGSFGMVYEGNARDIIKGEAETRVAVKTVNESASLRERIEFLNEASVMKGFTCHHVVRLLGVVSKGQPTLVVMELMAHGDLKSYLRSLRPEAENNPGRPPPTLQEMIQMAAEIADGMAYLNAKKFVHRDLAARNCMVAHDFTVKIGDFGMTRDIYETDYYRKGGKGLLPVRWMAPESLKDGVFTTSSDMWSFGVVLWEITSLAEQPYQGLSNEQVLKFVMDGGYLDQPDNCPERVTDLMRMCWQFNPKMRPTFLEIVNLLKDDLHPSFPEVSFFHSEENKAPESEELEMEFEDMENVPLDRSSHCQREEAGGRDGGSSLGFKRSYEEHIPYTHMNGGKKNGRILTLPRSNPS
Sequence of Histone deacetylase 3 (O15379 whole entry, the tested form may be a part): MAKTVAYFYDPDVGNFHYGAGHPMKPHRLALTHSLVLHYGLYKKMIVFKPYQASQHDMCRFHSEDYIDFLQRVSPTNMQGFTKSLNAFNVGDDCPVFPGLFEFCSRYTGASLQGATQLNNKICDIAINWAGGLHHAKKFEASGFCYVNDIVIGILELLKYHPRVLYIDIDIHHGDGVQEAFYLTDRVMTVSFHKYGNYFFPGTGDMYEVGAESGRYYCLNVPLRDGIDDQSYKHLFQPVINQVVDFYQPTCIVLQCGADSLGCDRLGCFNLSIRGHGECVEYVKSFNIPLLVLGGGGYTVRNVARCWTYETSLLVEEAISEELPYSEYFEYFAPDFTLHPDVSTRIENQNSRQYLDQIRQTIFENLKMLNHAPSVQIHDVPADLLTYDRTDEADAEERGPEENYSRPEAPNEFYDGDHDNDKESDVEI

pIC50 [1]	pIC50 [6]	pIC50 [7]	pIC50 (Insulin receptor)	pIC50 [8]	pIC50 [9]	pEC50 [10]	pIC50 [11]	Compound	pIC50 (CAL-27)	pIC50 (A-431)	pIC50 (A549)	pIC50 (SK-OV-3)	further results
5.28	6.04	< 4.00	5.44	7.96	7.74	5.33	5.17	O=C(/C=C/c1cccc(-c2ccc3ncnc(Nc4ccc(OCc5cccc(F)c5)c(Cl)c4)c3c2)c1)NO	6.23	6.14	5.92	6.00	pIC50 [2]: 5.60; inhibition [3]: Active; pIC50 [4]: 6.30; pIC50 [5]: 7.07; pIC50 (Histone deacetylase 1): 7.46; pIC50 (SK-BR-3): 6.46; pIC50 (Histone deacetylase 3): 7.18; IC50 (Histone deacetylase): 0.047 µM; pIC50 (HeLa): 6.01; pIC50 (Histone deacetylase 8): 6.20
5.57	6.36	4.46	5.72	8.46	8.32	< 4.00	5.57	O=C(/C=C/c1ccc(-c2ccc3ncnc(Nc4ccc(OCc5cccc(F)c5)c(Cl)c4)c3c2)s1)NO	6.18	6.14	5.59	5.40	Emax [12]: 70%
